This is an account of results in US20260026504A1, “COMPOUND […] STRUCTURE, APPLICATION, AND INSECTICIDE” (Anhui Shengfeng Biochemical Co., Ltd, priority 2022, published 2026).

Read-outs that look alike come from different tables or passages of the source.

The subject of the assay is diamondback moth (Plutella xylostella) second instar larvae. In words: Toxicity to diamondback moth larvae by the leaf-dipping method. The conditions noted are these: Plutella xylostella, in Brassica oleracea, foliar, corrected mortality grade, 1 ppm, cabbage leaf dip. It is filed as in vivo. Here is the method:
Determining the toxicity activity of part of compounds on diamondback moth (Plutella xylostella) instar larvae by the leafdipping method.
The test agents of the compounds in Table 2 were weighed out accurately with an electronic analytical balance, and the original drug was dissolved in a 10000 ppm solution with dimethyl sulfoxide as the solvent and then diluted with 0.1% of Triton solution to 1 ppm and 0.25 ppm solutions. Taking the cabbage not contacted with the liquid medicine, and cutting the leaves into 6 cm-diameter circular leaves. Soaking the leaves in the prepared liquid medicine for 15 seconds, taking out and drying, and placing the leaves into 6 cm culture dishes, wherein 1 cabbage leaf is placed in each culture dish. The same standard second instar larvae were placed in petri dishes with 10 heads per dish and 4 replicates per concentration for a total of 40 heads. After inoculation, the culture dish is placed in a constant-temperature culture chamber with the temperature of 25±1° C. and the illumination period of 16 (D) to 8 (L) h, and the number of dead and live larvae is investigated after 48 h and 72 h. A blank and a control of compound K1 and compound K2 were also provided.
The mortality is calculated according to the following formula 1, then the corrected mortality is calculated according to the formula 2, and finally the classification is carried out according to the corrected mortality value and the rating standard shown in the table 2, and the specific results are shown in the tables 3 and 4.
mortality %=(number of dead insects/total number of insects)×100% Equation 1;
corrected mortality %=[(treatment-control mortality)/(1-control mortality)]×100% Equation 2.

Where [1] appears, read: 48 h, 48 h, read-out: mortality (1 ppm) 48 h.
Setting [2] is: 72 h, 72 h, read-out: mortality (1 ppm) 72 h.

`Cc1cc(C2=NOC(c3cc(Cl)cc(Cl)c3)(C(F)(F)F)C2)ccc1C(=O)Nc1cn[nH]c1` (stereo not drawn) [Compound 1]: the mortality at 1 ppm lay in the range of 50 to 70% under setting [1] and 70 to 80% under setting [2].

As to `Cc1cc(C2=NOC(c3cc(Cl)cc(Cl)c3)(C(F)(F)F)C2)ccc1C(=O)Nc1cnn(C)c1` (stereo not drawn) [Compound 2], the mortality at 1 ppm reads like this: under setting [1], 80 to 90%; under setting [2], 100%.

As for `CCn1cc(NC(=O)c2ccc(C3=NOC(c4cc(Cl)cc(Cl)c4)(C(F)(F)F)C3)cc2C)cn1` (stereo not drawn) [Compound 3], the mortality at 1 ppm under setting [1] fell in the range of 70 to 80% and the mortality at 1 ppm under setting [2] fell in the range of 90 to 100%.

In the case of `CCCn1cc(NC(=O)c2ccc(C3=NOC(c4cc(Cl)cc(Cl)c4)(C(F)(F)F)C3)cc2C)cn1` (stereo not drawn) [Compound 4], the mortality at 1 ppm reads like this: under setting [1], 50 to 70%; under setting [2], 50 to 70%.

For `Cc1cc(C2=NOC(c3cc(Cl)cc(Cl)c3)(C(F)(F)F)C2)ccc1C(=O)Nc1cnn(C(C)C)c1` (stereo not drawn) [Compound 5], the mortality at 1 ppm is, setting by setting: under setting [1], 90 to 100%; under setting [2], 100%.

In the case of `Cc1cc(C2=NOC(c3cc(Cl)cc(Cl)c3)(C(F)(F)F)C2)ccc1C(=O)Nc1cnn(CC(F)(F)F)c1` (stereo not drawn) [Compound 7], the mortality at 1 ppm under setting [2] lay within 80 to 90%.

Turning to `Cc1cc(C2=NOC(c3cc(Cl)cc(Cl)c3)(C(F)(F)F)C2)ccc1C(=O)Nc1cnn(CC(F)F)c1` (stereo not drawn) [Compound 8], the mortality at 1 ppm by setting is: under setting [1], 50 to 70%; under setting [2], 80 to 90%.

Consider `Cc1cc(C2=NOC(c3cc(Cl)cc(Cl)c3)(C(F)(F)F)C2)ccc1C(=O)Nc1cnn(CCF)c1` (stereo not drawn) [Compound 9], for which, under setting [2], the mortality at 1 ppm was in the range of 80 to 90%.

Turning to `Cc1cc(C2=NOC(c3cc(Cl)cc(Cl)c3)(C(F)(F)F)C2)ccc1C(=O)Nc1cnn(CCC(F)(F)F)c1` (stereo not drawn) [Compound 10], the mortality at 1 ppm under setting [1] lay within 50 to 70% and the mortality at 1 ppm under setting [2] amounted to 100%.

With `Cc1cc(C2=NOC(c3cc(Cl)cc(Cl)c3)(C(F)(F)F)C2)ccc1C(=O)Nc1cnn(CCCF)c1` (stereo not drawn) [Compound 11], the mortality at 1 ppm under setting [1] lay in the range of 50 to 70% and the mortality at 1 ppm under setting [2] worked out at 100%.

As to `COCn1cc(NC(=O)c2ccc(C3=NOC(c4cc(Cl)cc(Cl)c4)(C(F)(F)F)C3)cc2C)cn1` (stereo not drawn) [Compound 12], the mortality at 1 ppm runs as follows: under setting [1], 50 to 70%; under setting [2], 50 to 70%.

In the case of `CCC(C)n1cc(NC(=O)c2ccc(C3=NOC(c4cc(Cl)cc(Cl)c4)(C(F)(F)F)C3)cc2C)cn1` (stereo not drawn) [Compound 16], the mortality at 1 ppm under setting [2] was in the range of 70 to 80%.

For the molecule `Cc1cc(C2=NOC(c3cc(Cl)cc(Cl)c3)(C(F)(F)F)C2)ccc1C(=O)Nc1cnn(C2CC2)c1` (stereo not drawn) [Compound 23], the mortality at 1 ppm runs as follows: under setting [1], 100%; under setting [2], 100%.

As to `Cc1cc(C2=NOC(c3cc(Cl)cc(Cl)c3)(C(F)(F)F)C2)ccc1C(=O)Nc1cnn(C2CCC2)c1` (stereo not drawn) [Compound 24], under setting [2], the mortality at 1 ppm lay in the range of 50 to 70%.

As for `C=CCn1cc(NC(=O)c2ccc(C3=NOC(c4cc(Cl)cc(Cl)c4)(C(F)(F)F)C3)cc2C)cn1` (stereo not drawn) [Compound 27], the mortality at 1 ppm was 50 to 70% under setting [1] and 70 to 80% under setting [2].

Turning to `C#CCn1cc(NC(=O)c2ccc(C3=NOC(c4cc(Cl)cc(Cl)c4)(C(F)(F)F)C3)cc2C)cn1` (stereo not drawn) [Compound 28], the mortality at 1 ppm under setting [1] was in the range of 80 to 90% and the mortality at 1 ppm under setting [2] worked out at 100%.

As for `Cc1cc(C2=NOC(c3cc(Cl)cc(Cl)c3)(C(F)(F)F)C2)ccc1C(=O)Nc1cnn(CC2CC2)c1` (stereo not drawn) [Compound 30], under setting [2], the mortality at 1 ppm fell in the range of 50 to 70%.

As to `Cc1cc(C2=NOC(c3cc(Cl)cc(Cl)c3)(C(F)(F)F)C2)ccc1C(=O)Nc1cnn(CC2CCCCC2)c1` (stereo not drawn) [Compound 33], the mortality at 1 ppm under setting [2] fell in the range of 50 to 70%.

Consider `COC(Cn1cc(NC(=O)c2ccc(C3=NOC(c4cc(Cl)cc(Cl)c4)(C(F)(F)F)C3)cc2C)cn1)OC` (stereo not drawn) [Compound 36], for which, under setting [2], the mortality at 1 ppm lay within 50 to 70%.

With `Cc1cc(C2=NOC(c3cc(Cl)cc(Cl)c3)(C(F)(F)F)C2)ccc1C(=O)Nc1cnn(C2CCOC2)c1` (stereo not drawn) [Compound 39], the mortality at 1 ppm under setting [2] lay within 50 to 70%.

With `Cc1cc(C2=NOC(c3cc(Cl)cc(Cl)c3)(C(F)(F)F)C2)ccc1C(=O)Nc1cnn(C2CCOCC2)c1` (stereo not drawn) [Compound 40], the mortality at 1 ppm reads like this: under setting [1], 50 to 70%; under setting [2], 50 to 70%.

With `Cc1cc(C2=NOC(c3cc(Cl)cc(Cl)c3)(C(F)(F)F)C2)ccc1C(=O)Nc1cnn(-c2ccccc2F)c1` (stereo not drawn) [Compound 42], the mortality at 1 ppm under setting [2] was 50 to 70%.

As for `Cc1cc(C2=NOC(c3cc(Cl)cc(Cl)c3)(C(F)(F)F)C2)ccc1C(=O)Nc1cnn(-c2ccccc2Br)c1` (stereo not drawn) [Compound 44], the mortality at 1 ppm under setting [2] is 50 to 70%.

As for `Cc1cc(C2=NOC(c3cc(Cl)cc(Cl)c3)(C(F)(F)F)C2)ccc1C(=O)Nc1cnn(-c2cccc(F)c2)c1` (stereo not drawn) [Compound 47], the mortality at 1 ppm under setting [2] fell in the range of 50 to 70%.

As for `COc1cccc(-n2cc(NC(=O)c3ccc(C4=NOC(c5cc(Cl)cc(Cl)c5)(C(F)(F)F)C4)cc3C)cn2)c1` (stereo not drawn) [Compound 51], the mortality at 1 ppm under setting [2] fell in the range of 50 to 70%.

On to `Cc1cc(C2=NOC(c3cc(Cl)cc(Cl)c3)(C(F)(F)F)C2)ccc1C(=O)Nc1cnn(-c2ccc(F)cc2)c1` (stereo not drawn) [Compound 52], for which the mortality at 1 ppm under setting [2] is 50 to 70%.

Consider `CC(=O)n1cc(NC(=O)c2ccc(C3=NOC(c4cc(Cl)cc(Cl)c4)(C(F)(F)F)C3)cc2C)cn1` (stereo not drawn) [Compound 58], for which, under setting [2], the mortality at 1 ppm fell in the range of 50 to 70%.

For `CCC(=O)n1cc(NC(=O)c2ccc(C3=NOC(c4cc(Cl)cc(Cl)c4)(C(F)(F)F)C3)cc2C)cn1` (stereo not drawn) [Compound 59], the mortality at 1 ppm under setting [2] lay within 50 to 70%.

Consider `CCCC(=O)n1cc(NC(=O)c2ccc(C3=NOC(c4cc(Cl)cc(Cl)c4)(C(F)(F)F)C3)cc2C)cn1` (stereo not drawn) [Compound 60], for which the mortality at 1 ppm under setting [2] fell in the range of 50 to 70%.

Regarding `Cc1cc(C2=NOC(c3cc(Cl)cc(Cl)c3)(C(F)(F)F)C2)ccc1C(=O)Nc1cnn(C(=O)C2CCC2)c1` (stereo not drawn) [Compound 64], the mortality at 1 ppm under setting [2] was 50 to 70%.

In the case of `Cc1cc(C2=NOC(c3cc(Cl)cc(Cl)c3)(C(F)(F)F)C2)ccc1C(=O)Nc1cnn(C(=O)N(C)C)c1` (stereo not drawn) [Compound 67], the mortality at 1 ppm under setting [2] lay in the range of 90 to 100%.

For the molecule `CCN(CC)C(=O)n1cc(NC(=O)c2ccc(C3=NOC(c4cc(Cl)cc(Cl)c4)(C(F)(F)F)C3)cc2C)cn1` (stereo not drawn) [Compound 68], the mortality at 1 ppm under setting [2] lay within 50 to 70%.

Regarding `Cc1cc(C2=NOC(c3cc(Cl)cc(Cl)c3)(C(F)(F)F)C2)ccc1C(=O)Nc1cnn(S(C)(=O)=O)c1` (stereo not drawn) [Compound 69], the mortality at 1 ppm under setting [2] lay in the range of 50 to 70%.

`CCCS(=O)(=O)n1cc(NC(=O)c2ccc(C3=NOC(c4cc(Cl)cc(Cl)c4)(C(F)(F)F)C3)cc2C)cn1` (stereo not drawn) [Compound 71]: under setting [2], the mortality at 1 ppm fell in the range of 70 to 80%.

Take `Cc1cc(C2=NOC(c3cc(Cl)cc(Cl)c3)(C(F)(F)F)C2)ccc1C(=O)Nc1cnn(S(=O)(=O)C(C)C)c1` (stereo not drawn) [Compound 72]: under setting [2], the mortality at 1 ppm lay within 50 to 70%.

Consider `Cc1cc(C2=NOC(c3cc(Cl)cc(Cl)c3)(C(F)(F)F)C2)ccc1C(=O)Nc1cnn(S(=O)(=O)c2ccccc2)c1` (stereo not drawn) [Compound 73], for which the mortality at 1 ppm under setting [2] is 50 to 70%.

`Cc1cc(C2=NOC(c3cc(Cl)cc(Cl)c3)(C(F)(F)F)C2)ccc1C(=O)Nc1cnn(S(=O)(=O)C2CCCCC2)c1` (stereo not drawn) [Compound 75]: the mortality at 1 ppm by setting is: under setting [1], 90 to 100%; under setting [2], 90 to 100%.

For the molecule `CCn1nc(C)c(NC(=O)c2ccc(C3=NOC(c4cc(Cl)cc(Cl)c4)(C(F)(F)F)C3)cc2C)c1C` (stereo not drawn) [Compound 97], the mortality at 1 ppm under setting [2] was in the range of 80 to 90%.

For the molecule `CCCn1nc(C)c(NC(=O)c2ccc(C3=NOC(c4cc(Cl)cc(Cl)c4)(C(F)(F)F)C3)cc2C)c1C` (stereo not drawn) [Compound 98], the mortality at 1 ppm under setting [2] lay in the range of 50 to 70%.

Regarding `CCC(CC)n1nc(C)c(NC(=O)c2ccc(C3=NOC(c4cc(Cl)cc(Cl)c4)(C(F)(F)F)C3)cc2C)c1C` (stereo not drawn) [Compound 102], the mortality at 1 ppm under setting [2] is 50 to 70%.

On to `Cc1cc(C2=NOC(c3cc(Cl)cc(Cl)c3)(C(F)(F)F)C2)ccc1C(=O)Nc1c(C)nn(Cc2ccccc2)c1C` (stereo not drawn) [Compound 104], for which the mortality at 1 ppm under setting [2] was in the range of 50 to 70%.

Regarding `Cc1cc(C2=NOC(c3cc(Cl)c(F)c(Cl)c3)(C(F)(F)F)C2)ccc1C(=O)Nc1cn[nH]c1` (stereo not drawn) [Compound 123], the mortality at 1 ppm runs as follows: under setting [1], 90 to 100%; under setting [2], 100%.

In the case of `Cc1cc(C2=NOC(c3cc(Cl)c(F)c(Cl)c3)(C(F)(F)F)C2)ccc1C(=O)Nc1cnn(C)c1` (stereo not drawn) [Compound 124], the mortality at 1 ppm is, setting by setting: under setting [1], 80 to 90%; under setting [2], 100%.

With `CCn1cc(NC(=O)c2ccc(C3=NOC(c4cc(Cl)c(F)c(Cl)c4)(C(F)(F)F)C3)cc2C)cn1` (stereo not drawn) [Compound 125], the mortality at 1 ppm came out at 100% under setting [1] and 100% under setting [2].

With `Cc1cc(C2=NOC(c3cc(Cl)c(F)c(Cl)c3)(C(F)(F)F)C2)ccc1C(=O)Nc1cnn(C2CC2)c1` (stereo not drawn) [Compound 129], the mortality at 1 ppm was 100% under setting [1] and 100% under setting [2].

On to `Cc1cc(C2=NOC(c3cc(Cl)c(F)c(Cl)c3)(C(F)(F)F)C2)ccc1C(=O)Nc1cnn(C2CCC2)c1` (stereo not drawn) [Compound 130], for which the mortality at 1 ppm reads like this: under setting [1], 90 to 100%; under setting [2], 100%.

Regarding `Cc1cc(C2=NOC(c3cc(Cl)c(F)c(Cl)c3)(C(F)(F)F)C2)ccc1C(=O)Nc1cnn(C2CCCC2)c1` (stereo not drawn) [Compound 131], the mortality at 1 ppm by setting is: under setting [1], 80 to 90%; under setting [2], 100%.

On to `Cc1cc(C2=NOC(c3cc(Cl)c(F)c(Cl)c3)(C(F)(F)F)C2)ccc1C(=O)Nc1cnn(C2CCCCC2)c1` (stereo not drawn) [Compound 132], for which the mortality at 1 ppm is 50 to 70% under setting [1] and 100% under setting [2].
